Reference: patent publication US6455577B2, “Flavanone derivatives and composition for preventing or treating blood lipid level-related diseases comprising same” (Korea Research Institute of Bioscience and Biotechnology, priority 2000, dated 2002)

Test system: New Zealand White rabbits
Test: Fatty streak in the main artery of cholesterol-fed rabbits
Type: in vivo, rabbit
Procedure: 22 three-month-old New Zealand White rabbits(Yeonam Horticulture and Animal Husbandry College, Korea) each weighing about 2.0 to 2.3 kg were bred under a condition of temperature 20±2° C., relative humidity 55±10%, and photoperiod 12L/12D. The rabbits were divided two groups of 6 rabbits and a group of 10 rabbits, and the rats of three groups were fed with three different diets, i.e., RC4 diet(Oriental Yeast Co., Japan) containing 1% cholesterol(Control group); 1% cholesterol plus 1 mg/kg Lovastatin® (Merck, U.S.A.)(Comparative group); and 1% cholesterol plus 0.1% NG5006, respectively. RC4 diet comprises 7.6% moisture, 22.8% crude protein, 2.8% crude fat, 8.8% crude ash, 14.4% crude cellulose and 43.6% soluble nitrogen-free substances. The rabbits were bred for 8 weeks while being allowed free access to the diets and water.
The rabbits bred in Step 1 were sacrificed and their chest were incised. The main artery was cut out therefrom in a length of about 5 cm downward from the site 1 cm above the aortic valve and the fat surrounding the main artery was removed. The main artery was incised in the middle along the longitudinal axis and fixed in 10% neutral buffered formalin for 24 hours, and then, pinned to a dish. The moist artery was photographed and, then, staining of fatty streak was carried out in accordance with the method of Esper, E., et al. (J. Lab. Clin. Med., 121, 103-110(1993)) as follows.
A part of the incised main artery was washed three times by 2 min. with anhydrous propylene glycol and stained for 30 min. with a saturated solution of Oil Red O(ORO, Sigma Co.) dissolved in propylene glycol. Thereafter, the artery was washed twice by 3 min. with 85% propylene glycol to remove remaining staining solution and, then washed with physical saline. The artery was photographed and the photograph was traced. The area of stained legion(fatty streak legion) was determined with an image analyzer(LEICA, Q-600, Germany) and its proportion(%) to the total arterial area was calculated. The result is shown in Table V. The results were tested by student t-test by using Microsoft excel(version 7.0) program.

SMILES: CCCCCCCCCCCCCCCCOc1cc(O)c2c(c1)OC(c1ccc(O)cc1)CC2=O (stereo not drawn) [NG5006, Naringenin 7-O-cetyl Ether]
- layer on the arterial endothelium (FIGS. 1B, 1C) (1% cholesterol plus 1 mg/kg Lovastatin or 0.1% NG5006): no or very thin layers of macrophage-lipid complex
- formation of fatty streak compared to the control group, in words (1% cholesterol plus 1 mg/kg Lovastatin or 0.1% NG5006, 8 weeks): significantly inhibit the formation of fatty streak
- Fatty Streak lesion (proportion of total arterial area) (1% cholesterol plus 1 mg/kg Lovastatin or 0.1% NG5006, 8 weeks, Oil Red O staining): 12.3 ± 6.2%
